Assays:
Type in all cases: cell-based, human
HepG-2 cells [1] = assay: DNA flow cytometry cell cycle analysis; conditions: HepG-2, compound at its IC50, 24 h
Method: The HepG-2 cells were then collected by trypsinization, washed with PBS, and fixed. After that, treated cells were stained using the Cycle Test Plus DNA Reagent Kit (BD Biosciences, San Jose, CA, USA) according to the manufacturer’s instructions. The percentage of cell cycle distribution was calculated using CELLQUEST software 5.1 (Becton Dickinson Immuno-cytometry Systems, San Jose, CA, USA) (Table S4).

p21 = assay: ELISA of p21 in treated HepG-2 cells; conditions: HepG-2, compound at its IC50, 24 h
Method: (§1) HepG2 cells were cultured in RPMI 10% + 5%FBS penicillin/streptomycin and were incubated at a humidity 5% CO2 and maintained at 37 °C. […] HepG2 cells were cultured as a monolayer in T-25 flasks and were seeded to attain 30% confluency prior to treatment. The main 100 mM stock dissolved in DMSO was diluted with the cell culture medium in order to reach the previously determined IC50 concentration of each of the three preparations. After that, HepG2 cells were collected via trypsinization and centrifuged at 10,000 rpm. The pellet was then rinsed with PBS and lysed in RIPA lysis buffer at 4 °C for 45 min, then centrifuged at 14,000 rpm for 20 min to remove the cellular debris. Lysates were then collected and stored at […] for protein determination. The levels of p53, p21, Fas-L, Bax, Bcl-2, and caspase 3/7 were assessed using the human P53 ELISA kit (Catalog No. ABIN6962151), P21 ELISA kit (Catalog No. ABIN6966175), Human Apoptosis Ligand (FAS-L), Bax ELISA kit, Human Factor-Related. Bcl-2 ELISA kit ELISA kit, and caspase3/7 ELISA kit (Elabscience Biotechnology Co., Wuhan, Hubei, China). The procedure of the used kits was done according to the manufacturer’s instructions. Briefly, equal amounts of cell lysates were loaded and then probed with specific antibodies. The samples were measured at 450 nm in ROBONEK P2000 ELISA reader. […]

Bax = assay: ELISA of Bax in treated HepG-2 cells; conditions: HepG-2, compound at its IC50; ± S.E.M; control 18.93±11.71
Method: as §1

Fas-L = assay: ELISA of Fas-L in treated HepG-2 cells; conditions: for increase of Fas-L expression compared to untreated control: HepG-2, compound at its IC50, 24 h; for Concentration of Fas L: HepG-2, compound at its IC50, ± S.E.M, control 15.33±1.71
Method: HepG2 cells were cultured in RPMI 10% + 5%FBS penicillin/streptomycin and were incubated at a humidity 5% CO2 and maintained at 37 °C. […] HepG2 cells were cultured as a monolayer in T-25 flasks and were seeded to attain 30% confluency prior to treatment. The main 100 mM stock dissolved in DMSO was diluted with the cell culture medium in order to reach the previously determined IC50 concentration of each of the three preparations. After that, HepG2 cells were collected via trypsinization and centrifuged at 10,000 rpm. The pellet was then rinsed with PBS and lysed in RIPA lysis buffer at 4 °C for 45 min, then centrifuged at 14,000 rpm for 20 min to remove the cellular debris. Lysates were then collected and stored at […] for protein determination. The levels of p53, p21, Fas-L, Bax, Bcl-2, and caspase 3/7 were assessed using the human P53 ELISA kit (Catalog No. ABIN6962151), P21 ELISA kit (Catalog No. ABIN6966175), Human Apoptosis Ligand (FAS-L), Bax ELISA kit, Human Factor-Related. Bcl-2 ELISA kit ELISA kit, and caspase3/7 ELISA kit (Elabscience Biotechnology Co., Wuhan, Hubei, China). The procedure of the used kits was done according to the manufacturer’s instructions. Briefly, equal amounts of cell lysates were loaded and then probed with specific antibodies. The samples were measured at 450 nm in ROBONEK P2000 ELISA reader. The analysis was confirmed with three different sets of extracts. All experiments were done in triplicate (Tables S6–S9).

Bcl-2 = assay: ELISA of Bcl-2 in treated HepG-2 cells; conditions: HepG-2, compound at its IC50; ± S.E.M; control 360.90±31.71
Method: as §1

HepG-2 cells [2] = assay: MTT cytotoxicity assay on HepG-2 cells; conditions: for fold higher cytotoxicity than indirubin: HepG-2 cells, relative to indirubin; for viability at 1.25 µM / viability at 2.5 µM / viability at 5 µM / viability at 10 µM / viability at 20 µM / viability at 40 µM / viability at 80 µM / viability at 160 µM / IC50: Homo sapiens, HepG2; for viability at 1.25 µM: HepG-2, 1.25 µM; for viability at 1.25 µM / viability at 2.5 µM / viability at 5 µM / viability at 10 µM / viability at 20 µM / viability at 40 µM / viability at 80 µM / viability at 160 µM: Table S1; for viability at 2.5 µM: HepG-2, 2.5 µM; for viability at 5 µM: HepG-2, 5 µM; for viability at 10 µM: HepG-2, 10 µM; for viability at 20 µM: HepG-2, 20 µM; for viability at 40 µM: HepG-2, 40 µM; for viability at 80 µM: HepG-2, 80 µM; for viability at 160 µM: HepG-2, 160 µM; for IC50: MTT, 24 h treatment, mean of three experiments ± SEM
Method: Cytotoxic activity of the synthesized compounds was evaluated against HepG-2 and MCF-7 cancer cell lines using the MTT assay. The tested cell lines were obtained from the American Type Culture Collection (ATCC, […], USA) through the Tissue Culture Unit, The Egyptian Organization for Biological Products and Vaccines (Vacsera, Giza, Egypt). Indirubin, chemicals, and solvents were purchased from Sigma-Aldrich (St. Louis, MO, USA). The cells were grown on RPMI-1640 medium supplemented with 10% inactivated fetal calf serum and 50 µg/mL gentamycin. The cells were maintained at 37 °C in a humidified atmosphere with 5% CO2 and were sub-cultured two to three times per week. For antitumor assays, the tumor cell lines were suspended in the medium at concentration 5 × 10^4 cell/well in Corning® 96-well tissue culture plates (Corning, Corning, NY, USA), then incubated for 24 h. The tested molecules were then added to 96-well plates (six replicates) to achieve six concentrations for each compound. Six vehicle controls with media or 0.5% DMSO were run for each 96-well plate as a control. After incubating for 24 h, the numbers of viable cells were determined by the MTT test. Briefly, the media was removed from the 96 well plate and replaced with 100 µL of fresh culture RPMI 1640 medium without phenol red then 10 µL of the 12 mM MTT stock solution (5 mg of MTT in 1 mL of PBS) to each well including the untreated controls. The 96-well plates were then incubated at 37 °C and 5% CO2 for 4 h. An 85 µL aliquot of the media was removed from the wells, and 50 µL of DMSO was added to each well, mixed thoroughly with the pipette, and incubated at 37 °C for 10 min. Then, the optical density was measured at 590 nm with the microplate reader (SunRise, TECAN, Inc., Morrisville, NC, USA) to determine the number of viable cells, and the percentage of viability was calculated as […], where ODt is the mean optical density of wells treated with the tested sample and ODc is the mean optical density of untreated cells. The relation between surviving cells and drug concentration was plotted to obtain the survival curve of each tumor cell line after treatment with the specified compound. […] Each concentration was repeated four times.

Structure (SMILES)	Cell cycle distribution (%) G0-G1 (HepG-2 cells [1]) [%]	Cell cycle distribution (%) G2-M (HepG-2 cells [1]) [%]	Cell cycle distribution (%) S (HepG-2 cells [1]) [%]	Cell cycle distribution (%) sub-G0/G1 (HepG-2 cells [1]) [%]	upregulation of p21 expression compared to untreated cells (p21) [fold]	Concentration of Bax (Bax) [pg/mL]	increase of Fas-L expression compared to untreated control (Fas-L) [fold]	Concentration of Fas L (Fas-L) [pg/mL]	Concentration of Bcl-2 (Bcl-2) [pg/mL]	fold higher cytotoxicity than indirubin (HepG-2 cells [2])	viability at 1.25 µM (HepG-2 cells [2]) [%]	viability at 2.5 µM (HepG-2 cells [2]) [%]	viability at 5 µM (HepG-2 cells [2]) [%]	viability at 10 µM (HepG-2 cells [2]) [%]	viability at 20 µM (HepG-2 cells [2]) [%]	viability at 40 µM (HepG-2 cells [2]) [%]	viability at 80 µM (HepG-2 cells [2]) [%]	viability at 160 µM (HepG-2 cells [2]) [%]	IC50 (HepG-2 cells [2]) [µM]
O=C1Nc2ccc(Cl)cc2C1=Nc1ccc2nc[nH]c(=O)c2c1 [Compound 9, 6-(5-Chloro-2-oxo-1,2-dihydro-indol-3-ylideneamino)-3H-quinazolin-4-one]	67.16	20.75	32.03	13.82	4.52	88.12 ± 5.27	5.7	86.11 ± 8.05	90.15 ± 8.27	2.2–2.7 fold	61.3 ± 3.6	54.4 ± 3.1	34.8 ± 0.9	28.6 ± 2.1	23.1 ± 2.4	19.6 ± 2	16.3 ± 1.7	12.9 ± 1.5	2.53 ± 0.11
O=C1Nc2ccc(Cl)cc2C1=Nc1ccc(-c2nc3ccccc3c(=O)[nH]2)cc1 [Compound 20, 2-[4-(5-Chloro-2-oxo-1,2-dihydro-indol-3-ylideneamino)-phenyl]-3H-quinazolin-4-one]	60.3	2.86	16.27	10.59	3.9	108.32 ± 9.82	4.1	62.06 ± 4.62	160.32 ± 10.82	2.2–2.7 fold	58.2 ± 3.3	52.1 ± 2.9	36.7 ± 1.2	29.4 ± 2.5	21.7 ± 2	18.4 ± 1.8	15.2 ± 1.5	11.8 ± 1.3	3.08 ± 0.35
